# From patent US5488049A, “Method of treating learning and memory disorders using benzothiadiazide derivatives as nootropic agents” (FIDIA - Georgetown Institute for the Neuro-Sciences, priority 1993, dated 1996)
# Experiments:
# AMPA receptor [1] = assay: Fast application with double barrel pipette: AMPA receptor desensitization in outside-out patches from CAl hippocampal pyramidal neurons; assay type: cell-based, rat
# Protocol: Young rats (12-16 days old) were decapitated and the brains quickly removed and placed in ice-cold Ringer solution. Thin slices of hippocampus (250 μm) were then cut with a vibratome slicer (Lancer, St. Louis, Mo.) and kept in Ringer solution at 37° C. until use. The experiments were carried out at room temperature with the slice totally submerged in a 1 ml volume recording chamber and under continuous perfusion with Ringer solution at a rate of 6 ml/min using an upright Hoffman modulation contrast microscope (Carl Zeiss, Germany) equipped with a 40×water immersion objective.
# (§1) Media and drug application. The external Ringer solution contained (in mM): NaCl 120; KCl 3.1; CaCl2 2; MgCl2 1; KH2 PO4 1; NaHCO3 26; glucose 2.7; and it was continuously bubbled with 95% O2 and 5% CO2. Patch pipettes were filled with a solution containing (in mM): K-gluconate 140; MgCl2 1; ATP.Mg 2; EGTA 0.5; HEPES-KOH 10, pH 7.2. All the drugs under investigation were applied through the recording chamber perfusion system via parallel inputs having a common entry into the chamber. Agonist application was attained using two different systems that allowed a slow or a rapid solution change. Slow solution changes were used during recordings in whole-cell configuration and were obtained by exchanging the solution of the recording chamber within a few seconds. Fast solution changes were obtained with the use of the Y-shaped tubing method that allows complete exchange of solution in less than 10 ms, and is described in detail by Murase et al. (1989).
# Briefly, a polyethylene tubing (1 mm i.d.) is bent in a U-shaped, and another fine polyethylene tubing (50 μi.d.) and 10 mm length) is inserted into a small hole in the U-tubing making the tip of the Y-tubing. Solutions are fed to the Y-tubing by gravity, and negative pressure facilitates exchange of the solution. The tip of the Y-tubing is positioned 100 μm from the cell investigated, and upon opening and closing of a valve that controls the negative pressure, it was possible to respectively change rapidly and apply a number of different test solutions. This method was used to apply agonists to excised outside-out membrane patches. More rapid drug applications were used to apply agonists to excised outside-out membrane patches, and were obtained through a double-barrelled pipette positioned close to the recording pipette containing the membrane patch. […] The agonist was applied for a period of 150 ms and the time necessary for a complete exchange of the solution was less than 1 ms as measured at the opening of a patch pipette containing different dilutions of the drugs under study. […]
# Ionic currents in whole-cell configuration and outside-out excised membrane patches were monitored using the patch clamp technique (15). […]
# AMPA receptor [2] = assay: Fast application with Y-tubing: dose-response on desensitization of glutamate current in outside-out patches from CAl pyramidal neurons; assay type: cell-based, rat; conditions: increasing doses, 5 μM MK-801
# Excerpt: as §1, with “Fast solution changes were obtained with the use of the Y-shaped tubing method that allows complete exchange of solution in less than 10 ms, and is described in detail by Murase et al. (1989).” left out
# Briefly, a polyethylene tubing (1 mm i.d.) is bent in a U-shaped, and another fine polyethylene tubing (50 μi.d.) and 10 mm length) is inserted into a small hole in the U-tubing making the tip of the Y-tubing. […] The agonist was applied for a period of 150 ms and the time necessary for a complete exchange of the solution was less than 1 ms as measured at the opening of a patch pipette containing different dilutions of the drugs under study. […]
# Dose-response studies were performed with the Y-tubing system, and analyzed with sigmoid interpolation (Graphpad Academic Press). […]
# rats = assay: Water maze: drug action on learning and retention in rats; assay type: in vivo, rat
# Protocol: Rats (male, 250 g) were trained once a day in maze A (See FIG. 8B forced maze) for 2 consecutive days. The day of the experiment, after a first exposure to maze A, IDRA 21 (15 mg/kg) Aniracetam (500 mg/kg) or vehicle (cont) were administered per oral gavage and 30 min later the animals were exposed once again to Maze A. After 30 min of interatrial rest, rats were exposed to Maze B (see FIG. 8C open maze).
# The water maze apparatus was adapted from Kant et al., (16), and consists of three concentric squares placed inside a 5 ft plastic pool (FIG. 6). The walls of the maze are 50 cm in height and are constructed from black opaque plastic to allow for tracking of the animal with an overhead camera. The alleys between the walls are 16 cm wide. In the center of each wall there is a removable doorway. The opening of doorways allows for the construction of mazes with an increasing number of potential error possibilities. (See diagram for Maze A and Maze B, FIG. 6). The maze is located in a room 10'×15' at constant temperature (18° C.) adjacent to the vivarium. The room is illuminated with overhead lights which also serve as spatial cues. Additional spatial cues are provided by the position of the investigator and a number of small white x's placed within specific locations upon the walls of the maze. The maze is filled with water (18°)C. to a depth of 25 cm.
# Seven days prior to drug studies, rats were tested in Maze A (forced maze) on two consecutive days. Pretesting with the "forced" maze enabled the assessment of the animals' general motor, sensory and motivational abilities, and facilitated the exclusion of those animals unable to meet pretesting criteria. Performance was assessed by determining either swim time, errors committed, or path length measured with a computerized recording device. Errors are defined as whole body entry into alleys not leading directly to the exit platform (i.e., shaded portions in FIG. 6). Rats were excluded from the study if their swim path length and/or number of errors were two standard deviations above the mean […] of the entire group. During the first two trials, the rats were placed into the center of the maze and given a maximum of 180 secs to find the "exit platform" located at the "finish" (FIG. 6). The time required, the number of errors, and the path length were recorded for each trial. […] Rats meeting the criteria were randomly divided into groups. On the day of the experiment, a single trial was run (Maze A) in order to establish a baseline of performance. Following drug administration, the rats were again tested once on Maze A to establish a baseline of post-treatment performance. Following an additional interatrial interval of 30 min., the rats were tested on Maze B.
structure (smiles),measurement,setting,value
"CC1Nc2ccc(Cl)cc2S(=O)(=O)N1 (racemic) [IDRA 21, 7-chloro-3-methyl-3,4-dihydro-2H 1,2,4-benzothiadiazine S-S dioxide]",removal of glutamate-induced desensitization,"AMPA receptor [1]; 1 mM IDRA 21, double barrel, outside-out patches, 4 of 5 patches",completely removed the desensitization induced by glutamate in 4 of 5 patches tested
same,desensitization of AMPA/Kainate receptors (summary),AMPA receptor [1]; summary statement,reduction in the desensitization of AMPA/Kainate receptors
same,desensitization of current activated by 100 μM glutamate,AMPA receptor [2],decreased by increasing doses
same,"efficacy in improving water maze performance of trained rats, vs aniracetam",rats; 0.2 μmol icv vs aniracetam 1.8 μmol icv,at least as efficacious as aniracetam
same,"performance in water maze (errors and time, Maze B)",rats; 15 mg/kg os,"significantly improves the performance of rats, reducing the number of errors and the time interval in accomplishing the task in Maze B"
same,improvement of water maze performance,"rats; FIG. 8A, IDRA 21 15 mg/kg, Aniracetam 500 mg/kg oral",improve water performance in rats
same,significance (P) of water maze performance vs control,"rats; IDRA 21 15 mg/kg, Aniracetam 500 mg/kg per oral gavage, at least 5 rats",< 0.05
same,potency vs aniracetam in potentiating learning and enhancing cognitive performance,"rats; racemic form, naive rats and rats with alprazolam-disrupted learning",at least an order of magnitude more potent than aniracetam
